Legend:
[1] = tested on: OPM-2 human multiple myeloma cell line; experiment: Cell Viability Assay (OPM-2 10 FBS); format: cell-based; settings: Homo sapiens, OPM-2, 16 h, OPM-2 cells, 16 h, CellTiter-Glo
Summary of the method: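 Plated at 3000 cells/well in 10% FBS complete medium, the cells received a serial compound dilution series and incubated 16 h at 37 °C with 5% CO2. CellTiter-Glo was then added; IC50 values were fitted with a logistic 4-parameter model.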

[2] = target: T1, Mcl-1/Bim interaction, recombinant human Mcl-1 (171-327) (Homo sapiens, UniProt Q07820); experiment: Cell free Mcl-1: Bim Affinity Assay (Mcl-1 HTRF); format: binding
T1 construct: made in house
Summary of the method: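 Read-out is time-resolved FRET after overnight incubation, using a biotin-labelled peptide from human Bim (51-76) as the binding partner; IC50 was derived from competition curves.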

[3] = TR-FRET, 0.1 nM Mcl-1 (171-327), 0.05 nM biotin-Bim (51-76)
[4] = cell free Mcl-1:Bim TR-FRET, recombinant human Mcl-1 (171-327)

T1 sequence (Q07820 171-327): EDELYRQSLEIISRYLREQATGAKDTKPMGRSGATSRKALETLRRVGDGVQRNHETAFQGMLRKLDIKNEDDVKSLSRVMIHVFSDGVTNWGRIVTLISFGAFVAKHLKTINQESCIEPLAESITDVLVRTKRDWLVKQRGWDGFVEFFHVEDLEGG

IC50 [1]	IC50 [2, 3]	IC50 [2, 4]	Structure (SMILES)
14400 nM	0.127 nM	–	C[C@@H]1CC/C=C/[C@H](OCC(=O)O)[C@@H]2CC[C@H]2CN2C[C@@]3(CCCc4cc(Cl)ccc43)COc3ccc(cc32)C(=O)NS1(=O)=O [Example 407, (((1S,3′R,6′R,7′S,8′E,12′R)-6-chloro-12′-methyl-13′,13′-dioxido-15′-oxo-3,4-dihydro-2H-spiro[naphthalene-1,22′-[20]oxa[13]thia[1,14]diazatetracyclo[14.7.2.0^3,6.0^19,24]pentacosa [8,16,18,24]tetraen]-7′-yl)oxy)acetic acid]
98.8 nM	0.312 nM	–	COC(=O)CO[C@H]1/C=C/CC[C@@H](C)S(=O)(=O)NC(=O)c2ccc3c(c2)N(C[C@@H]2CC[C@H]21)C[C@@]1(CCCc2cc(Cl)ccc21)CO3 [Example 408, methyl(((1S,3′R,6′R,7′S,8′E,12′R)-6-chloro-12′-methyl-13′,13′-dioxido-15′-oxo-3,4-dihydro-2H-spiro[naphthalene-1,22′-[20]oxa[13]thia[1,14]diazatetracyclo[14.7.2.0^3,6.0^19,24]pentacosa [8,16,18,24]tetraen]-7′-yl)oxy)acetate]
751 nM	1.27 nM	–	Cc1noc(C)c1CO[C@H]1/C=C/CC[C@@H](C)S(=O)(=O)NC(=O)c2ccc3c(c2)N(C[C@@H]2CC[C@H]21)C[C@@]1(CCCc2cc(Cl)ccc21)CO3 [Example 409, (1S,3′R,6′R,7′S,8′E,12′R)-6-chloro-7′-((3,5-dimethyl-4-isoxazolyl)methoxy)-12′-methyl-3,4-dihydro-2H,15′H-spiro[naphthalene-1,22′-[20]oxa[13]thia[1,14]diazatetracyclo[14.7.2.0^3,6.0^19,24]pentacosa [8,16,18,24]tetraen]-15′-one 13′,13′-dioxide]
208 nM	0.144 nM	–	C[C@@H]1CC/C=C/[C@H](OCc2ncn(C)n2)[C@@H]2CC[C@H]2CN2C[C@@]3(CCCc4cc(Cl)ccc43)COc3ccc(cc32)C(=O)NS1(=O)=O [Example 410, (1S,3′R,6′R,7′S,8′E,12′R)-6-chloro-12′-methyl-7′-((l-methyl-1H-1,2,4-triazol-3-yl)methoxy)-3,4-dihydro-2H,15′H-spiro[naphthalene-1,22′-[20]oxa[13]thia[1,14]diazatetracyclo[14.7.2.0^3,6.0^19,24]pentacosa [8,16,18,24]tetraen]-15′-one 13′,13′-dioxide]
2410 nM	1.29 nM	–	Cc1cc(CO[C@H]2/C=C/CC[C@@H](C)S(=O)(=O)NC(=O)c3ccc4c(c3)N(C[C@@H]3CC[C@H]32)C[C@@]2(CCCc3cc(Cl)ccc32)CO4)no1 [Example 411, (1S,3′R,6′R,7′S,8′E,12′R)-6-chloro-12′-methyl-7′-((5-methyl-3-isoxazolyl)methoxy)-3,4-dihydro-2H,15′H-spiro[naphthalene-1,22′-[20]oxa[13]thia[1,14]diazatetracyclo[14.7.2.0^3,6.0^19,24]pentacosa [8,16,18,24]tetraen]-15′-one 13′,13′-dioxide]
325 nM	0.267 nM	–	Cc1nnc(CO[C@H]2/C=C/CC[C@@H](C)S(=O)(=O)NC(=O)c3ccc4c(c3)N(C[C@@H]3CC[C@H]32)C[C@@]2(CCCc3cc(Cl)ccc32)CO4)o1 [Example 412, (1S,3′R,6′R,7′S,8′E,12′R)-6-chloro-12′-methyl-7′-((5-methyl-1,3,4-oxadiazol-2-yl)methoxy)-3,4-dihydro-2H,15′H-spiro[naphthalene-1,22′-[20]oxa[13]thia[1,14]diazatetracyclo[14.7.2.0^3,6.0^19,24]pentacosa [8,16,18,24]tetraen]-15′-one 13′,13′-dioxide]
374 nM	0.358 nM	–	C[C@@H]1CC/C=C/[C@H](O[C@H]2CCOC2=O)[C@@H]2CC[C@H]2CN2C[C@@]3(CCCc4cc(Cl)ccc43)COc3ccc(cc32)C(=O)NS1(=O)=O [Example 413]
1060 nM	0.377 nM	–	C[C@@H]1CC/C=C/[C@H](OCc2cnnn2C)[C@@H]2CC[C@H]2CN2C[C@@]3(CCCc4cc(Cl)ccc43)COc3ccc(cc32)C(=O)NS1(=O)=O [Example 416, (1S,3′R,6′R,7′S,8′E,12′R)-6-chloro-12′-methyl-7′-((1-methyl-1H-1,2,3-triazol-5-yl)methoxy)-3,4-dihydro-2H,15′H-spiro[naphthalene-1,22′-[20]oxa[13]thia[1,14]diazatetracyclo[14.7.2.0^3,6.0^19,24]pentacosa [8,16,18,24]tetraen]-15′-one 13′,13′-dioxide]
834 nM	0.214 nM	–	C[C@@H]1CC/C=C/[C@H](OCc2cn(C)nn2)[C@@H]2CC[C@H]2CN2C[C@@]3(CCCc4cc(Cl)ccc43)COc3ccc(cc32)C(=O)NS1(=O)=O [Example 417, (1S,3′R,6′R,7′S,8′E,12′R)-6-chloro-12′-methyl-7′-((1-methyl-1H-1,2,3-triazol-4-yl)methoxy)-3,4-dihydro-2H,15′H-spiro[naphthalene-1,22′-[20]oxa[13]thia[1,14]diazatetracyclo[14.7.2.0^3,6.0^19,24]pentacosa [8,16,18,24]tetraen]-15′-one 13′,13′-dioxide]
111 nM	0.275 nM	–	C[C@@H]1CC/C=C/[C@H](OCCN2CCOCC2)[C@@H]2CC[C@H]2CN2C[C@@]3(CCCc4cc(Cl)ccc43)COc3ccc(cc32)C(=O)NS1(=O)=O [Example 418, (1S,3′R,6′R,7′S,8′E,12′R)-6-chloro-12′-methyl-7′-(2-(4-morpholinyl)ethoxy)-3,4-dihydro-2H,15′H-spiro[naphthalene-1,22′-[20]oxa[13]thia[1,14]diazatetracyclo[14.7.2.0^3,6.0^19,24]pentacosa [8,16,18,24]tetraen]-15′-one 13′,13′-dioxide]
198 nM	0.249 nM	–	CC[C@@H]1CC/C=C/[C@H](OCc2ncn(C)n2)[C@@H]2CC[C@H]2CN2C[C@@]3(CCCc4cc(Cl)ccc43)COc3ccc(cc32)C(=O)NS1(=O)=O [Example 423, (1S,3′R,6′R,7′S,8′E,12′R)-6-chloro-12′-ethyl-7′-((1-methyl-1H-1,2,4-triazol-3-yl)methoxy)-3,4-dihydro-2H,15′H-spiro[naphthalene-1,22′-[20]oxa[13]thia[1,14]diazatetracyclo[14.7.2.0^3,6.0^19,24]pentacosa [8,16,18,24]tetraen]-15′-one 13′,13′-dioxide]
941 nM	2.1 nM	–	CC[C@@H]1CC/C=C/[C@H](OC(C)=O)[C@@H]2CC[C@H]2CN2C[C@@]3(CCCc4cc(Cl)ccc43)COc3ccc(cc32)C(=O)NS1(=O)=O [Example 426, (1S,3′R,6′R,7′S,8′E,12′R)-6-chloro-12′-ethyl-13′,13′-dioxido-15′-oxo-3,4-dihydro-2H-spiro[naphthalene-1,22′-[20]oxa[13]thia[1,14]diazatetracyclo[14.7.2.0^3,6.0^19,24]pentacosa [8,16,18,24]tetraen]-7′-yl acetate]
235 nM	–	0.188 nM	C[C@@H]1[C@@H](C)C/C=C/[C@H](OCCCO)[C@@H]2CC[C@H]2CN2C[C@@]3(CCCc4cc(Cl)ccc43)COc3ccc(cc32)C(=O)NS1(=O)=O [Example 509, (1S,3′R,6′R,7′S,8′E,11′S,12′R)-6-chloro-7′-(3-hydroxypropoxy)-11′,12′-dimethyl-3,4-dihydro-2H,15′H-spiro[naphthalene-1,22′-[20]oxa[13]thia[1,14]diazatetracyclo[14.7.2.0^3,6.0^19,24]pentacosa [8,16,18,24]tetraen]-15′-one 13′,13′-dioxide]
587 nM	–	1.25 nM	C[C@@H]1[C@@H](C)C/C=C/[C@H](OC[C@H]2CCCO2)[C@@H]2CC[C@H]2CN2C[C@@]3(CCCc4cc(Cl)ccc43)COc3ccc(cc32)C(=O)NS1(=O)=O [Example 510, (1S,3′R,6′R,7′S,8′E,11′S,12′R)-6-chloro-11′,12′-dimethyl-7′-((2R)-tetrahydro-2-furanylmethoxy)-3,4-dihydro-2H,15′H-spiro[naphthalene-1,22′-[20]oxa[13]thia[1,14]diazatetracyclo[14.7.2.0^3,6.0^19,24]pentacosa [8,16,18,24]tetraen]-15′-one 13′,13′-dioxide]
311 nM	–	1.5 nM	C[C@@H]1[C@@H](C)C/C=C/[C@H](OCCCl)[C@@H]2CC[C@H]2CN2C[C@@]3(CCCc4cc(Cl)ccc43)COc3ccc(cc32)C(=O)NS1(=O)=O [Example 511, (1S,3′R,6′R,7′S,8′E,11′S,12′R)-6-chloro-7′-(2-chloroethoxy)-11′,12′-dimethyl-3,4-dihydro-2H,15′H-spiro[naphthalene-1,22′-[20]oxa[13]thia[1,14]diazatetracyclo[14.7.2.0^3,6.0^19,24]pentacosa [8,16,18,24]tetraen]-15′-one 13′,13′-dioxide]
362 nM	–	0.998 nM	COCCCO[C@H]1/C=C/C[C@H](C)[C@@H](C)S(=O)(=O)NC(=O)c2ccc3c(c2)N(C[C@@H]2CC[C@H]21)C[C@@]1(CCCc2cc(Cl)ccc21)CO3 [Example 512, (1S,3′R,6′R,7′S,8′E,11′S,12′R)-6-chloro-7′-(3-methoxypropoxy)-11′,12′-dimethyl-3,4-dihydro-2H,15′H-spiro[naphthalene-1,22′-[20]oxa[13]thia[1,14]diazatetracyclo[14.7.2.0^3,6.0^19,24]pentacosa [8,16,18,24]tetraen]-15′-one 13′,13′-dioxide]
184 nM	–	0.395 nM	C[C@@H]1[C@@H](C)C/C=C/[C@H](OCCN(C)C)[C@@H]2CC[C@H]2CN2C[C@@]3(CCCc4cc(Cl)ccc43)COc3ccc(cc32)C(=O)NS1(=O)=O [Example 513, (1S,3′R,6′R,7′S,8′E,11′S,12′R)-6-chloro-7′-(2-(dimethylamino)ethoxy)-11′,12′-dimethyl-3,4-dihydro-2H,15′H-spiro[naphthalene-1,22′-[20]oxa[13]thia[1,14]diazatetracyclo[14.7.2.0^3,6.0^19,24]pentacosa [8,16,18,24]tetraen]-15′-one 13′,13′-dioxide]
